Measurements published in US20260007681A1, “INDOLE DERIVATIVES AS ESTROGEN RECEPTOR DEGRADERS” (REGENTS OF THE UNIVERSITY OF MICHIGAN, priority 2022, published 2026).

Target: ER (Homo sapiens (Human), UniProt P03372)
Experiment: Western blot analysis (Compounds B1-B278)
Type: cell-based
Details: ER degradation by traditional Western blot; DC50 classes
Procedure, shortened: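 Compound-treated cells were lysed in RIPA buffer (Tris.HCl pH 7.6, 1% NP-40, deoxycholate, 0.1% SDS) with protease inhibitors; equal protein was resolved on 10% SDS-PAGE, transferred to PVDF and immunoblotted. Band intensities were quantified and normalized to GAPDH.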

ER, sequence (P03372 whole entry): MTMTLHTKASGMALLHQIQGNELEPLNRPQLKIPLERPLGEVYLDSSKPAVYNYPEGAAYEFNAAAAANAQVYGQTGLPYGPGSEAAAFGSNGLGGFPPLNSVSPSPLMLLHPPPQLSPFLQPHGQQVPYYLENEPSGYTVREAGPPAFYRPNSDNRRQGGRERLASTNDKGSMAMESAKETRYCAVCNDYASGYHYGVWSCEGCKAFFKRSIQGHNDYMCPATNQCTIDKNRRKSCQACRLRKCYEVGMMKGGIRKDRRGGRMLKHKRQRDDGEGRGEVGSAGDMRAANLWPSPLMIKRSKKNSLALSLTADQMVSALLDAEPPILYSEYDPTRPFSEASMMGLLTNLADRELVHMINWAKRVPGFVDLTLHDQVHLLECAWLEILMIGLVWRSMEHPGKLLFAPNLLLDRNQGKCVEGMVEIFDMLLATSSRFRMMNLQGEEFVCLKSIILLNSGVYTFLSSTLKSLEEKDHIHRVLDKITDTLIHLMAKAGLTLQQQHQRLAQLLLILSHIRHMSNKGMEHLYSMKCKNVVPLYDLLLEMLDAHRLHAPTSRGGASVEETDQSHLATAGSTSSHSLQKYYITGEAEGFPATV

Row | SMILES | Traditional Western Degradation Potency
1 | C[C@@H]1Cc2c([nH]c3ccccc23)[C@@H](c2c(F)cc(N3CCCC(CN4CCC(C(=O)N5Cc6cc7c(cc6C5)C(=O)N(C5CCC(=O)NC5=O)C7=O)CC4)C3)cc2F)N1CC(F)F (stereo partly drawn) [Compound B189, 6-(1-((1-(4-((1R,3R)-2-(2,2-difluoroethyl)-3-methyl-2,3,4,9-tetrahydro-1H-pyrido[3,4-b]indol-1-yl)-3,5-difluorophenyl)piperidin-3-yl)methyl)piperidine-4-carbonyl)-2-(2,6-dioxopiperidin-3-yl)-6,7-dihydropyrrolo[3,4-f]isoindole-1,3(2H,5H)-dione] | B (“B”: 10-100 nM)
2 | C[C@@H]1Cc2c([nH]c3ccccc23)[C@@H](c2c(F)cc(N3CCCC(CN4CCC(N5Cc6cc7c(cc6C5)C(=O)N(C5CCC(=O)NC5=O)C7=O)CC4)C3)cc2F)N1CC(F)F (stereo partly drawn) [Compound B190, 6-(1-((1-(4-((1R,3R)-2-(2,2-difluoroethyl)-3-methyl-2,3,4,9-tetrahydro-1H-pyrido[3,4-b]indol-1-yl)-3,5-difluorophenyl)piperidin-3-yl)methyl)piperidin-4-yl)-2-(2,6-dioxopiperidin-3-yl)-6,7-dihydropyrrolo[3,4-f]isoindole-1,3(2H,5H)-dione] | B (“B”: 10-100 nM)
3 | C[C@@H]1Cc2c([nH]c3ccccc23)[C@@H](c2c(F)cc(N3CC4(CCN4CC(=O)N4Cc5cc6c(cc5C4)C(=O)N(C4CCC(=O)NC4=O)C6=O)C3)cc2F)N1CC(F)F (stereo partly drawn) [Compound B191, 6-(2-(6-(4-((1R,3R)-2-(2,2-difluoroethyl)-3-methyl-2,3,4,9-tetrahydro-1H-pyrido[3,4-b]indol-1-yl)-3,5-difluorophenyl)-1,6-diazaspiro[3.3]heptan-1-yl)acetyl)-2-(2,6-dioxopiperidin-3-yl)-6,7-dihydropyrrolo[3,4-f]isoindole-1,3(2H,5H)-dione] | C (“C”: >100 nM)
4 | C[C@@H]1Cc2c([nH]c3ccccc23)[C@@H](c2c(F)cc(N3CC4(CCN4CC(=O)N4Cc5cc6c(cc5C4)C(=O)N(C4CCC(=O)NC4=O)C6)C3)cc2F)N1CC(F)F (stereo partly drawn) [Compound B192, 3-(6-(2-(6-(4-((1R,3R)-2-(2,2-difluoroethyl)-3-methyl-2,3,4,9-tetrahydro-1H-pyrido[3,4-b]indol-1-yl)-3,5-difluorophenyl)-1,6-diazaspiro[3.3]heptan-1-yl)acetyl)-1-oxo-3,5,6,7-tetrahydropyrrolo[3,4-f]isoindol-2(1H)-yl)piperidine-2,6-dione] | C (“C”: >100 nM)
5 | C[C@@H]1Cc2c([nH]c3ccccc23)[C@@H](c2c(F)cc(N3CCC4(CCN(CC(=O)N5Cc6cc7c(cc6C5)C(=O)N(C5CCC(=O)NC5=O)C7=O)C4)CC3)cc2F)N1CC(F)F (stereo partly drawn) [Compound B193, 6-(2-(8-(4-((1R,3R)-2-(2,2-difluoroethyl)-3-methyl-2,3,4,9-tetrahydro-1H-pyrido[3,4-b]indol-1-yl)-3,5-difluorophenyl)-2,8-diazaspiro[4.5]decan-2-yl)acetyl)-2-(2,6-dioxopiperidin-3-yl)-6,7-dihydropyrrolo[3,4-f]isoindole-1,3(2H,5H)-dione] | A (“A”: <10 nM)
6 | C[C@@H]1Cc2c([nH]c3ccccc23)[C@@H](c2c(F)cc(N3CCC4(CCN(CC(=O)N5Cc6cc7c(cc6C5)C(=O)N(C5CCC(=O)NC5=O)C7)C4)CC3)cc2F)N1CC(F)F (stereo partly drawn) [Compound B194, 3-(6-(2-(8-(4-((1R,3R)-2-(2,2-difluoroethyl)-3-methyl-2,3,4,9-tetrahydro-1H-pyrido[3,4-b]indol-1-yl)-3,5-difluorophenyl)-2,8-diazaspiro[4.5]decan-2-yl)acetyl)-1-oxo-3,5,6,7-tetrahydropyrrolo[3,4-f]isoindol-2(1H)-yl)piperidine-2,6-dione] | A (“A”: <10 nM)
7 | C[C@@H]1Cc2c([nH]c3ccccc23)[C@@H](c2c(F)cc(N3CCC4(CCN(C(=O)CN5Cc6cc7c(cc6C5)C(=O)N(C5CCC(=O)NC5=O)C7)C4)CC3)cc2F)N1CC(F)F (stereo partly drawn) [Compound B195, 3-(6-(2-(8-(4-((1R,3R)-2-(2,2-difluoroethyl)-3-methyl-2,3,4,9-tetrahydro-1H-pyrido[3,4-b]indol-1-yl)-3,5-difluorophenyl)-2,8-diazaspiro[4.5]decan-2-yl)-2-oxoethyl)-1-oxo-3,5,6,7-tetrahydropyrrolo[3,4-f]isoindol-2(1H)-yl)piperidine-2,6-dione] | A (“A”: <10 nM)
8 | C[C@@H]1Cc2c([nH]c3ccccc23)[C@@H](c2c(F)cc(N3CC[C@@H](CN4CCC(C(=O)N5Cc6cc7c(cc6C5)C(=O)N(C5CCC(=O)NC5=O)C7)CC4)C3)cc2F)N1CC(F)F (stereo partly drawn) [Compound B196, 3-(6-(1-(((S)-1-(4-((1R,3R)-2-(2,2-difluoroethyl)-3-methyl-2,3,4,9-tetrahydro-1H-pyrido[3,4-b]indol-1-yl)-3,5-difluorophenyl)pyrrolidin-3-yl)methyl)piperidine-4-carbonyl)-1-oxo-3,5,6,7-tetrahydropyrrolo[3,4-f]isoindol-2(1H)-yl)piperidine-2,6-dione] | A (“A”: <10 nM)
9 | C[C@@H]1Cc2c([nH]c3ccccc23)[C@@H](c2c(F)cc(N3CC[C@@H](CN4CCC(C(=O)N5Cc6cc7c(cc6C5)C(=O)N(C5CCC(=O)NC5=O)C7=O)CC4)C3)cc2F)N1CC(F)F (stereo partly drawn) [Compound B197, 6-(1-(((S)-1-(4-((1R,3R)-2-(2,2-difluoroethyl)-3-methyl-2,3,4,9-tetrahydro-1H-pyrido[3,4-b]indol-1-yl)-3,5-difluorophenyl)pyrrolidin-3-yl)methyl)piperidine-4-carbonyl)-2-(2,6-dioxopiperidin-3-yl)-6,7-dihydropyrrolo[3,4-f]isoindole-1,3(2H,5H)-dione] | A (“A”: <10 nM)
10 | C[C@@H]1Cc2c([nH]c3ccccc23)[C@@H](c2c(F)cc(N3CCC4(CCN(C(=O)CN5Cc6cc7c(cc6C5)C(=O)N(C5CCC(=O)NC5=O)C7=O)CC4)CC3)cc2F)N1CC(F)(F)F (stereo partly drawn) [Compound B199, 6-(2-(9-(3,5-difluoro-4-((1R,3R)-3-methyl-2-(2,2,2-trifluoroethyl)-2,3,4,9-tetrahydro-1H-pyrido[3,4-b]indol-1-yl)phenyl)-3,9-diazaspiro[5.5]undecan-3-yl)-2-oxoethyl)-2-(2,6-dioxopiperidin-3-yl)-6,7-dihydropyrrolo[3,4-f]isoindole-1,3(2H,5H)-dione] | B (“B”: 10-100 nM)
11 | C[C@@H]1Cc2c([nH]c3ccccc23)[C@@H](c2c(F)cc(N3CCC4(CC3)CN(C(=O)CN3Cc5cc6c(cc5C3)C(=O)N(C3CCC(=O)NC3=O)C6=O)C4)cc2F)N1CC(F)(F)F (stereo partly drawn) [Compound B200, 6-(2-(7-(3,5-difluoro-4-((1R,3R)-3-methyl-2-(2,2,2-trifluoroethyl)-2,3,4,9-tetrahydro-1H-pyrido[3,4-b]indol-1-yl)phenyl)-2,7-diazaspiro[3.5]nonan-2-yl)-2-oxoethyl)-2-(2,6-dioxopiperidin-3-yl)-6,7-dihydropyrrolo[3,4-f]isoindole-1,3(2H,5H)-dione] | B (“B”: 10-100 nM)
12 | C[C@@H]1Cc2c([nH]c3ccccc23)[C@@H](c2c(F)cc(N3CCC(C(=O)N4CCC(N5Cc6cc7c(cc6C5)C(=O)N(C5CCC(=O)NC5=O)C7=O)CC4)CC3)cc2F)N1CC(F)(F)F (stereo partly drawn) [Compound B201, 6-(1-(1-(3,5-difluoro-4-((1R,3R)-3-methyl-2-(2,2,2-trifluoroethyl)-2,3,4,9-tetrahydro-1H-pyrido[3,4-b]indol-1-yl)phenyl)piperidine-4-carbonyl)piperidin-4-yl)-2-(2,6-dioxopiperidin-3-yl)-6,7-dihydropyrrolo[3,4-f]isoindole-1,3(2H,5H)-dione] | B (“B”: 10-100 nM)
13 | C[C@@H]1Cc2c([nH]c3ccccc23)[C@@H](c2c(F)cc(N3CC(C(=O)N4CC(N5Cc6cc7c(cc6C5)C(=O)N(C5CCC(=O)NC5=O)C7=O)C4)C3)cc2F)N1CC(F)F (stereo partly drawn) [Compound B202, 6-(1-(1-(4-((1R,3R)-2-(2,2-difluoroethyl)-3-methyl-2,3,4,9-tetrahydro-1H-pyrido[3,4-b]indol-1-yl)-3,5-difluorophenyl)azetidine-3-carbonyl)azetidin-3-yl)-2-(2,6-dioxopiperidin-3-yl)-6,7-dihydropyrrolo[3,4-f]isoindole-1,3(2H,5H)-dione] | B (“B”: 10-100 nM)
14 | C[C@@H]1Cc2c([nH]c3ccccc23)[C@@H](c2c(F)cc(N3CC(C(=O)N4CC(CN5Cc6cc7c(cc6C5)C(=O)N(C5CCC(=O)NC5=O)C7=O)C4)C3)cc2F)N1CC(F)F (stereo partly drawn) [Compound B203, 6-((1-(1-(4-((1R,3R)-2-(2,2-difluoroethyl)-3-methyl-2,3,4,9-tetrahydro-1H-pyrido[3,4-b]indol-1-yl)-3,5-difluorophenyl)azetidine-3-carbonyl)azetidin-3-yl)methyl)-2-(2,6-dioxopiperidin-3-yl)-6,7-dihydropyrrolo[3,4-f]isoindole-1,3(2H,5H)-dione] | B (“B”: 10-100 nM)
15 | C[C@@H]1Cc2c([nH]c3ccccc23)[C@@H](c2c(F)cc(N3CCC4(CCN(CC5Cc6cc7c(cc6C5)C(=O)N(C5CCC(=O)NC5=O)C7=O)CC4)CC3)cc2F)N1CC(F)(F)F (stereo partly drawn) [Compound B204, 6-((9-(3,5-difluoro-4-((1R,3R)-3-methyl-2-(2,2,2-trifluoroethyl)-2,3,4,9-tetrahydro-1H-pyrido[3,4-b]indol-1-yl)phenyl)-3,9-diazaspiro[5.5]undecan-3-yl)methyl)-2-(2,6-dioxopiperidin-3-yl)-6,7-dihydrocyclopenta[f]isoindole-1,3(2H,5H)-dione] | C (“C”: >100 nM)
